As a reminder, the IC50 is the point on the concentration scale where inhibition reaches its midpoint. Read a high IC50 as weaker potency in that assay.

Consider four compounds from publication PMC12507699, “SLC45A4 is a pain gene encoding a neuronal polyamine transporter” (Nature, 2025).

Test [1] addresses T1, SLC45A4 (Homo sapiens, UniProt Q5BKX6).
T1 sequence (Q5BKX6 1-768): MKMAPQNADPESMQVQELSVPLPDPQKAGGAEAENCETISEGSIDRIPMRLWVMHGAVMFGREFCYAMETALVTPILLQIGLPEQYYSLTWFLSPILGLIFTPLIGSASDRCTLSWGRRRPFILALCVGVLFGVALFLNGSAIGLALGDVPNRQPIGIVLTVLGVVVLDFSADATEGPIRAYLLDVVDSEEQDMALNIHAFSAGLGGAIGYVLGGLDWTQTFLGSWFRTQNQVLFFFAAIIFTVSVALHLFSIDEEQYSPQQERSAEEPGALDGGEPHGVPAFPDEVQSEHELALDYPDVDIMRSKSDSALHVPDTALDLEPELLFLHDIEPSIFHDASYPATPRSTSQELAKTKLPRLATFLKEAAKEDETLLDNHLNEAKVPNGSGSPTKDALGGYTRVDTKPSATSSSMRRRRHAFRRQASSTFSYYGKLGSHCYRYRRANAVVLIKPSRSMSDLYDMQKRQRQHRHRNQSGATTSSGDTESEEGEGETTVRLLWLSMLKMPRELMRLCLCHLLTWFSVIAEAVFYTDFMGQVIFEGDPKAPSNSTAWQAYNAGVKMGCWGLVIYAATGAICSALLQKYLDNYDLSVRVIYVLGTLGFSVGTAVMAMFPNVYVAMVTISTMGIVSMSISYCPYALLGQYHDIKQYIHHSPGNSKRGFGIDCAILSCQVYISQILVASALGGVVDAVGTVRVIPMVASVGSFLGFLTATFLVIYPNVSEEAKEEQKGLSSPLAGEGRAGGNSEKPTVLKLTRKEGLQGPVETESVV
The test is described as follows: competition of […]-SPD uptake in Neuro-2A cells overexpressing SLC45A4; also nanoDSF on purified protein. The test is classed as cell-based. The arrangement: full-length human SLC45A4. Background: Differential scanning fluorimetry follows unfolding on heating by fluorescence.

For test [2], the target named is T1, SLC45A4. As to the kind of experiment: […]-SPD uptake and homologous competition in Neuro-2A cells overexpressing SLC45A4; also nanoDSF destabilization of purified protein in detergent and nanodiscs. The test is classed as cell-based. The arrangement: full-length human SLC45A4.
For test [3], the target named is T1, SLC45A4. As to the kind of experiment: cell-based.

For `NCCCCCN` [Cad, cadaverine], the concentration for half-maximal inhibition (IC50) at SLC45A4 [1] came to 67 µM.

`NCCCCN` [Put, putrescine]: the IC50 on SLC45A4 [1] was found to be 74 µM.

The compound `NCCCCNCCCN` [SPD, spermidine] returned an IC50 on SLC45A4 [2] of 123 µM.

Compound `NCCCNCCCCNCCCN` [Spm, spermine] came in with a half-inhibitory concentration (IC50) on SLC45A4 [3] of 240 µM.
